According to patent US20150025045A1, “CBP AND p300-MEDIATED TRANSCRIPTION MODULATORS AND RELATED METHODS” (THE OHIO STATE UNIVERSITY, priority 2011, published 2015):
Entries after “also recorded” stand apart in the source; their conditions may differ.

Key:
MCF-7 cells = assay: Cell viability assay (WST-1); type: cell-based; details: at concentrations ≧50 μM (so in the source)
Procedure: Viability data was acquired after 24 h using a cell-permeable metabolic dye, WST-1 (Roche). Viability data was normalized based on cell viability in the presence of 1% DMSO.
MCF-7 cells (American Tissue Culture Collection) were seeded at 5000 cells per well in a 96 well plate in RPMI media supplemented with 10% fetal bovine serum and allowed to adhere (37° C. and 5% CO2) overnight. Cells were incubated with 1b in DMSO or DMSO alone to a final DMSO concentration of 1% (v/v) for 24 hrs. WST-1 (Roche) was subsequently added to wells and the 96 well plate was incubated for 1 h at 37° C. Absorbance at 440 nm was read on a Tecan GENios Pro plate reader following 1 minute of orbital shaking. Data was corrected for wells containing media+WST-1 without cells. Each value is the average of at least three wells with the indicated error (SDOM).

Jun = assay: Transcriptional inhibition assay, Ga14 DBD-Jun TAD luciferase reporter in HeLa cells; type: cell-based; details: in words
Procedure: Cells were transfected with Firefly (500 ng/mL) and Renilla luciferase (10 ng/mL) plasmids in addition to plasmids encoding the DBD of Ga14 fused to the minimal activation domains of either MLL (250 ng/mL), Jun (100 ng/mL), or ESX (500 ng/mL, 0.1 mL of total transfection solution). Four hours post-transfection cells were treated with increasing concentration of 1b (0→50 μM) as a solution in DMSO such that the final DMSO concentration was 1% (v/v). Percent inhibition is the ratio of fold activation of Jun at each concentration of compound and the fold activation of Jun in a DMSO-treated control. Each bar represents at least three independent experiments with the indicated error (SDOM). For each concentration level of 1b shown in FIG. 5a, the first data column from the left is Jun, the middle column is MLL, and the third column is ESX. (b) MCF-7 cells were treated with 40 μM 1b (as a solution in DMSO such that the final concentration of DMSO was 1% v/v) for 24 h, at which time the cells were lysed and the lysates separated by SDS-PAGE. Western blots were performed using commercial antibodies against GAPDH, Jun, and cyclin D1.
(b) Analogs of 1b tested for MLL and Jun inhibition. (c) Inhibition of Jun with isoxazolidine analogs Inhibition assays were carried out as described in FIG. 5a (SEQ ID NOs:1-4). For each concentration level shown in FIG. 6c, the compound data is shown (from the left) in the following order: 3, 4, 5, 6, 7, 8 and 9.
HeLa cells (10,000 per well) were transfected with a Firefly luciferase reporter (500 ng/mL), and Renilla (10 ng/mL) control plasmid in addition to a plasmid encoding for either the MLL (250 ng/mL) or Jun (100 ng/mL) activation domain fused to the DNA-binding domain of Ga14 in 0.1 mL Optimem. The Optimem was removed and 0.1 mL of DMEM supplemented with 10% FBS and compound was added four hours post-transfection and the luminescence was assessed after 24 h as described above.

KIX domain of CBP = molecular target: T1, KIX domain of CBP (Mus musculus, UniProt P45481); assay: 1H-15N-HSQC binding analysis; details: 200 μM 15N-His6KIX, 5 eq. compound
T1 construct: the KIX domain, an 87-residue module whose solution structure has been elucidated; made in house
Procedure: The amide chemical shifts that change upon addition of 4 were quantitated were quantified using the equation: Δδ=[Δδ(^1H)^2+0.1Δδ(^15N)^2]^1/2, FIG. 7B bottom.
Uniformly labeled His6KIX protein was expressed and purified as previously described and stored as a lyophilized powder (see, e.g., Buhrlage, 2009). A 200 μM solution of His6KIX was prepared by dissolving the lyophilized protein, in a 9:1 H2O:D2O 10 mM PBS buffer containing 150 mM NaCl at pH 7.2. ^1H-^15N HSQC experiments were recorded at 27° C. on an Avance Bruker 600 MHz NMR spectrometer equipped with a 5 mm cryogenic probe. An HSQC was collected in the absence of isoxazolidine 4 and compared with data recorded in the presence of 5 eq. (1 mM) of 4. Data was processed using NMRPIPE. Chemical shift assignments were based on previously reported data′ and chemical shift analyses with Sparky software were quantified (Δδ=[Δδ(^1H)^2+0.1Δδ(^15N)^2]^1/2).

T1 sequence (P45481 586-665 limits assumed): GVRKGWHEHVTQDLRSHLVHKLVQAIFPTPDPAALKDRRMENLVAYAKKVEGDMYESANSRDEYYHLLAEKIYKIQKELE

Row | Compound | toxicity (MCF-7 cells) | effect on Jun-driven transcription (Jun) | KIX binding by 1H-15N-HSQC (KIX domain of CBP)
1 | CC(C)C[C@]1(CCO)C[C@H](CN=[N+]=[N-])ON1Cc1ccc(O)cc1 (racemic) [isoxazolidine 4] | no measurable toxicity | little activity | did not negatively impact KLX binding
2 | CC(C)C[C@]1(CCO)C[C@H](CN=[N+]=[N-])ON1Cc1ccc(F)cc1 (racemic) [isoxazolidine 6] |  | dose-dependent manner; also recorded: enhanced potency | 
3 | CC(C)CCN1O[C@@H](CN=[N+]=[N-])C[C@@]1(CCO)CC(C)C (racemic) [isoxazolidine 7] |  | dose-dependent manner; also recorded: enhanced potency | 
4 | CC(C)CN1O[C@@H](CN=[N+]=[N-])C[C@@]1(CCO)CC(C)C (racemic) [isoxazolidine 8] |  | little activity | 
5 | CCCN1O[C@@H](CN=[N+]=[N-])C[C@@]1(CCO)CC(C)C (racemic) [isoxazolidine 9] |  | little activity | 
